Measurements as given in patent publication US12257290B2, “PIC1 inhibition of myeloperoxidase oxidative activity in an animal model” (priority 2018, dated 2025).
Ends that are not written are not given here.

Experiment: 'Two-hit' TRALI model: LPS then 30% mismatched human RBC transfusion
Assay type: in vivo, Wistar rats
Experimental: In this Example, Wistar rats were primed with lipopolysaccharide followed by 30% transfusion of mismatched erythrocytes, against which the rats have preexisting antibodies. Sham and vehicle animals were used as controls with a subgroup of animals receiving PIC1 two minutes before transfusion. At 4 hours, blood was isolated for complete blood count. Isolated lung tissue was stained with hematoxylin and eosin and myeloperoxidase (MPO) activity in lung tissue was quantified in a functional assay. Free DNA in plasma was detected by PicoGreen staining.
Lung tissue stained with H&E was analyzed by a clinician blinded to the experimental groups (vehicle only and PIC1-treated animals). Neutrophil infiltration and cell wall thickening were scored on a scale of 0-4: 0=normal lungs, 1=minor lung involvement, 2=moderate lung involvement, 3=serious lung involvement, 4=severe lung involvement.
A myeloperoxidase (MPO) activity assay was conducted as follows. Frozen lung tissue was diced and homogenized on ice in 50 mM potassium phosphate, and centrifuged at 10,000 RPM at 4° C. for 15 minutes after which the supernatant was discarded. To solubilize MPO from the neutrophils in lung tissue, the pellet was resuspended in […] 50 mM hexadecyltrimethylammonium bromide (HTAB), homogenized by sonication and snap frozen in liquid nitrogen. This process was repeated twice and samples were then centrifuged at 10,000 RPM at 4° C. for 10 minutes and supernatant collected.
Peroxidase activity in these samples was measured using 10-actyl-3,7-dihydroxyphenoxazine (ADHP, Amplex Red) following MPO antibody capture from samples as previously described. Fluorescence was read from […] in […] which provided twenty-five data points per well at an excitation wavelength of 535 nm and emission wavelength of 590 nm using a BioTek microplate reader. Purified MPO was used as a positive control and phosphate buffered saline (PBS) as a negative control. All activity assays were performed in triplicate.
Free DNA was measured by PicoGreen in rat plasma as previously described. Briefly, plasma samples were diluted 1:10 in 10 mM Tris-HCl, 1 mM EDTA, pH 8.0 (TE) buffer and 50 uL of each sample was added to the wells along with 50 uL of a 1:200 dilution of PicoGreen (Life Technologies) and incubated at room temperature for 10 minutes, protected from light. A DNA standard curve was prepared in TE Buffer. The fluorescence was then read at an excitation wavelength of 485 nm and an emission wavelength of 520 nm using a BioTek microplate reader. All free DNA measurements were done in triplicate.
For the ‘two-hit’ model, rats were sedated as above and lipopolysaccharide (LPS, from Salmonella enterica serotype enteritidis, 2 mg/kg [Millipore-Sigma]) was administered intravascularly through the indwelling jugular catheter as the ‘first-hit’ similar to other TRALI models (reviewed in references). This was followed 30 minutes later by 30% mismatched RBC transfusion as the ‘second-hit’. Blood samples were collected prior to LPS administration and at 4 hours after RBC transfusion for analysis of blood chemistries (SuperChem and CBC, Antech Diagnostics). Upon completion of the final blood draw, the animals were euthanized using isofluorane and guillotine. A necropsy was completed to collect organs for histopathology. Lungs acquired from each animal were weighed and then stored in formalin or frozen at −70° C. Hematoxylin and eosin (H&E) stained sections of formalin fixed tissue were reviewed in a blinded fashion.
To determine if prophylactic administration of PIC1 would attenuate TRALI pathogenesis, this transfusion-based antibody-initiated complement-mediated TRALI model was utilized. Twenty-eight minutes after IV LPS infusion, 160 mg/kg PIC1 or vehicle control was administered IV followed by the 30% mismatched RBC transfusion. […]

IALILEPICCQERAA-dPEG24 (cysteine pairing not given here) [PA-dPEG24, 15-amino acid PEGylated peptide, 24 PEG moieties at the C-terminus]
lung weight (160 mg/kg IV 2 min before transfusion, 4 h after transfusion, vs vehicle p=0.001): significant reduction
lung histology (H&E) (160 mg/kg IV prophylactic, 4 h after transfusion): decreased injury to the lung architecture
MPO activity in lung tissue (Amplex Red) (5 minutes read, vs vehicle p=0.005): significantly reduced
MPO activity in lung tissue (Amplex Red) (10 minutes read, vs vehicle p=0.002): significantly reduced
lung injury score (neutrophil infiltration and cell wall thickening), mean (scale 0-4, 160 mg/kg IV, vs vehicle p=0.003): 1.5
free DNA in plasma (PicoGreen) (vs vehicle p=0.02): significantly reduced
blood levels of white blood cells (vs vehicle p=0.043): significant increase
blood levels of lymphocytes (vs vehicle p=0.048): significant increase
circulating neutrophils (vs vehicle p=0.101): trends towards increased numbers
circulating monocytes (vs vehicle p=0.229): trends towards increased numbers
blood levels of creatinine, BUN/creatinine and AST (vs vehicle, data not shown): reduction
kidney weights (vs vehicle, data not shown): reduced kidney weights
